Measured values taken from the supplement of paper PMC10307832.

Columns and labels:
Test in all cases: relative viability (nuclei count vs DMSO), 5 days (fraction); higher = more cells survive
[1] = tested on: NCI-H1666
How it was run: (§1)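 Relative viability divides the nuclei count in treated wells by that in vehicle wells. Lung cancer cell lines were seeded in 1536-well plates, dosed by pin tool the next day, and fixed and stained after 5 days in one step with final 0.05% Triton X-100, 1% formaldehyde and 1 ug/ml Hoechst. Dosing was a single drug or a fixed anchor-drug dose plus five library-drug doses (not always all listed) in √10 steps, and values are medians of duplicate plates imaged at 4×.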

[2] = tested on: HCC-15
How it was run: as §1

[3] = tested on: NCI-H1993
How it was run: as §1

[4] = tested on: PC-3 [JPC-3]
How it was run: as §1

[5] = tested on: NCI-H520
How it was run: as §1

[6] = tested on: PC-14
How it was run: as §1

[7] = tested on: SK-LU-1
How it was run: as §1

[8] = tested on: NCI-H1734
How it was run: as §1

[9] = tested on: NCI-H2228
How it was run: as §1

[10] = tested on: H3255
How it was run: as §1

[11] = tested on: HARA
How it was run: as §1

[12] = tested on: NCI-H3122
How it was run: as §1

[13] = tested on: NCI-H1975
How it was run: as §1

[14] = tested on: NCI-H838
How it was run: as §1

[15] = tested on: CAL-12T
How it was run: as §1

[16] = tested on: LC-2-ad
How it was run: as §1

[17] = tested on: NCI-H1944
How it was run: as §1

[18] = tested on: HCC-366
How it was run: as §1

[19] = tested on: NCI-H647
How it was run: as §1

[20] = tested on: LU99A
How it was run: as §1

[21] = tested on: NCI-H1395
How it was run: as §1

[22] = tested on: COR-L 105
How it was run: as §1

## CCCCCCCCCCCC1=C(O)C(=O)C=C(O)C1=O [Embelin] + CC1(C)CCC(c2ccc(Cl)cc2)=C(CN2CCN(c3ccc(C(=O)NS(=O)(=O)c4ccc(N[C@H](CCN5CCOCC5)CSc5ccccc5)c(S(=O)(=O)C(F)(F)F)c4)cc3)CC2)C1 [Navitoclax] (partner 0.5 µM)
[1]; first compound 0.08 µM
  relative viability: 1.21
[1]; first compound 0.8 µM
  relative viability: 1.22
[1]; first compound 2.53 µM
  relative viability: 0.995
[1]; first compound 8 µM
  relative viability: 0.999
[2]; first compound 0.08 µM
  relative viability: 0.659
[2]; first compound 0.8 µM
  relative viability: 0.773
[2]; first compound 2.53 µM
  relative viability: 0.718
[2]; first compound 8 µM
  relative viability: 0.693
[3]; first compound 0.08 µM
  relative viability: 0.958
[3]; first compound 0.8 µM
  relative viability: 0.84
[3]; first compound 2.53 µM
  relative viability: 0.916
[3]; first compound 8 µM
  relative viability: 0.893
[4]; first compound 0.08 µM
  relative viability: 0.82
[4]; first compound 0.8 µM
  relative viability: 0.752
[4]; first compound 2.53 µM
  relative viability: 0.941
[4]; first compound 8 µM
  relative viability: 0.72
[5]; first compound 0.08 µM
  relative viability: 1.24
[5]; first compound 0.8 µM
  relative viability: 1.26
[5]; first compound 2.53 µM
  relative viability: 1.07
[5]; first compound 8 µM
  relative viability: 1.04
[6]; first compound 0.08 µM
  relative viability: 0.968
[6]; first compound 0.8 µM
  relative viability: 1.05
[6]; first compound 2.53 µM
  relative viability: 0.997
[6]; first compound 8 µM
  relative viability: 1.06
[7]; first compound 0.08 µM
  relative viability: 0.808
[7]; first compound 0.8 µM
  relative viability: 1.16
[7]; first compound 2.53 µM
  relative viability: 0.786
[7]; first compound 8 µM
  relative viability: 0.832
[8]; first compound 0.08 µM
  relative viability: 0.847
[8]; first compound 0.8 µM
  relative viability: 1.09
[8]; first compound 2.53 µM
  relative viability: 1.23
[8]; first compound 8 µM
  relative viability: 0.894
[9]; first compound 0.08 µM
  relative viability: 0.793
[9]; first compound 0.8 µM
  relative viability: 0.955
[9]; first compound 2.53 µM
  relative viability: 1.28
[9]; first compound 8 µM
  relative viability: 0.604
[10]; first compound 0.08 µM
  relative viability: 0.516
[10]; first compound 0.8 µM
  relative viability: 0.674
[10]; first compound 2.53 µM
  relative viability: 0.551
[10]; first compound 8 µM
  relative viability: 0.599
[11]; first compound 0.08 µM
  relative viability: 1.12
[11]; first compound 0.8 µM
  relative viability: 1.2
[11]; first compound 2.53 µM
  relative viability: 1.12
[11]; first compound 8 µM
  relative viability: 1.13
[12]; first compound 0.08 µM
  relative viability: 1.05
[12]; first compound 0.8 µM
  relative viability: 1.01
[12]; first compound 2.53 µM
  relative viability: 0.985
[12]; first compound 8 µM
  relative viability: 1.02
[13]; first compound 0.08 µM
  relative viability: 1.13
[13]; first compound 0.8 µM
  relative viability: 1.29
[13]; first compound 2.53 µM
  relative viability: 1.13
[13]; first compound 8 µM
  relative viability: 1.11
[14]; first compound 0.08 µM
  relative viability: 1.19
[14]; first compound 0.8 µM
  relative viability: 1.25
[14]; first compound 2.53 µM
  relative viability: 1.2
[14]; first compound 8 µM
  relative viability: 1.18
[15]; first compound 0.08 µM
  relative viability: 1.12
[15]; first compound 0.8 µM
  relative viability: 1.41
[15]; first compound 2.53 µM
  relative viability: 1.23
[15]; first compound 8 µM
  relative viability: 1.24
[16]; first compound 0.08 µM
  relative viability: 0.406
[16]; first compound 0.8 µM
  relative viability: 0.625
[16]; first compound 2.53 µM
  relative viability: 0.451
[16]; first compound 8 µM
  relative viability: 0.51
[17]; first compound 0.08 µM
  relative viability: 1.01
[17]; first compound 0.8 µM
  relative viability: 1.11
[17]; first compound 2.53 µM
  relative viability: 1.06
[17]; first compound 8 µM
  relative viability: 0.941
[18]; first compound 0.08 µM
  relative viability: 0.953
[18]; first compound 0.8 µM
  relative viability: 1.16
[18]; first compound 2.53 µM
  relative viability: 1.13
[18]; first compound 8 µM
  relative viability: 1.11
[19]; first compound 0.08 µM
  relative viability: 1.25
[19]; first compound 0.8 µM
  relative viability: 1.35
[19]; first compound 2.53 µM
  relative viability: 1.21
[19]; first compound 8 µM
  relative viability: 1.2
[20]; first compound 0.08 µM
  relative viability: 0.993
[20]; first compound 0.8 µM
  relative viability: 0.943
[20]; first compound 2.53 µM
  relative viability: 0.864
[20]; first compound 8 µM
  relative viability: 0.755
[21]; first compound 0.08 µM
  relative viability: 1.18
[21]; first compound 0.8 µM
  relative viability: 1.42
[21]; first compound 2.53 µM
  relative viability: 1.18
[21]; first compound 8 µM
  relative viability: 0.982
[22]; first compound 0.08 µM
  relative viability: 0.758
[22]; first compound 0.8 µM
  relative viability: 1.04
[22]; first compound 2.53 µM
  relative viability: 0.748
[22]; first compound 8 µM
  relative viability: 0.795
